The source made the active and inactive calls.
Experiments:
[1] = Counterscreen for AddAB inhibitors: absorbance-based bacterial cell-based high throughput dose response assay for inhibitors of bacterial viability. [Related pubchem assays (depositor defined):AID435030, AID449728, AID449731, AID488942, AID488955, AID488956]; format: functional
[2] = target: Exodeoxyribonuclease V (Escherichia coli (strain K12), UniProt P04993+P07648+P08394); assay: RecBCD inhibition via phage-restricted bacterial growth – absorbance, V66 E. coli, mutant T4 phage, counter-screen for AddAB inhibitor project, dose response (AID 492957); format: functional, cell-based, Escherichia coli str. K-12 substr. MG1655
[3] = Luminescence Cell-Based Dose Retest to Confirm Inhibitors of Cancer Stem Cells. [Related pubchem assays (depositor defined):AID2717, AID2721]; format: functional, Homo sapiens; conditions: Homo sapiens
[4] = viability loss of HMLE_sh_eGFP cells – cell-based, luminescence, counter-screen for HMLE_sh_ECad selective toxicity project, dose response (AID 463074); format: functional, Homo sapiens;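 note: HMLE human mammary epithelial cells expressing control shRNA against eGFP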
[5] = target: Fructose-bisphosphate aldolase (Mycobacterium tuberculosis, UniProt P9WQA3); assay: Fluorescence-based biochemical high throughput dose response assay for inhibitors of the fructose-bisphosphate aldolase (FBA) of M. tuberculosis.; format: functional
[6] = system: INS1; assay: INS-1E survival protection against cytokine death – cell-based, luminescence, retest, dose response (AID 449756); format: functional; conditions: Rattus norvegicus;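 note: cell death triggered by IL-1 beta plus TNF-alpha plus IFN-gamma mixture; protective hits raise ATP signal compared with cytokine alone wells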
[7] = target: T1, Ubiquitin-conjugating enzyme E2 N (Homo sapiens, UniProt P61088); format: functional
T1 sequence (P61088 whole entry): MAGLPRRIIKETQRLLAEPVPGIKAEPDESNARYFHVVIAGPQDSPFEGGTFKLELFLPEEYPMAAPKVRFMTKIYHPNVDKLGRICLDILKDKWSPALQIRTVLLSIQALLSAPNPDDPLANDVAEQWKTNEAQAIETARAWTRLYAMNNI

[8] = target: T1, Ubiquitin-conjugating enzyme E2 N; format: functional; remark: listed apart in the source
[9] = target: Bcl-2-related protein A1 (Mus musculus, UniProt Q07440); format: functional;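 note: confirmatory dose–response counterscreen on Bfl-1, used to check hits from a UBC13 polyubiquitin inhibitor campaign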
[10] = HGIII-sPLA2 enzyme inhibition potency – biochemical, QFRET, IC50, dose response (AID 743457);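 note: green fluorescence rise as the enzyme cleaves BODIPY PC-A2 in liposomes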
[11] = target: T2, Tyrosine-protein phosphatase non-receptor type 22 (Homo sapiens, UniProt Q9Y2R2); format: functional
T2 sequence (Q9Y2R2 whole entry): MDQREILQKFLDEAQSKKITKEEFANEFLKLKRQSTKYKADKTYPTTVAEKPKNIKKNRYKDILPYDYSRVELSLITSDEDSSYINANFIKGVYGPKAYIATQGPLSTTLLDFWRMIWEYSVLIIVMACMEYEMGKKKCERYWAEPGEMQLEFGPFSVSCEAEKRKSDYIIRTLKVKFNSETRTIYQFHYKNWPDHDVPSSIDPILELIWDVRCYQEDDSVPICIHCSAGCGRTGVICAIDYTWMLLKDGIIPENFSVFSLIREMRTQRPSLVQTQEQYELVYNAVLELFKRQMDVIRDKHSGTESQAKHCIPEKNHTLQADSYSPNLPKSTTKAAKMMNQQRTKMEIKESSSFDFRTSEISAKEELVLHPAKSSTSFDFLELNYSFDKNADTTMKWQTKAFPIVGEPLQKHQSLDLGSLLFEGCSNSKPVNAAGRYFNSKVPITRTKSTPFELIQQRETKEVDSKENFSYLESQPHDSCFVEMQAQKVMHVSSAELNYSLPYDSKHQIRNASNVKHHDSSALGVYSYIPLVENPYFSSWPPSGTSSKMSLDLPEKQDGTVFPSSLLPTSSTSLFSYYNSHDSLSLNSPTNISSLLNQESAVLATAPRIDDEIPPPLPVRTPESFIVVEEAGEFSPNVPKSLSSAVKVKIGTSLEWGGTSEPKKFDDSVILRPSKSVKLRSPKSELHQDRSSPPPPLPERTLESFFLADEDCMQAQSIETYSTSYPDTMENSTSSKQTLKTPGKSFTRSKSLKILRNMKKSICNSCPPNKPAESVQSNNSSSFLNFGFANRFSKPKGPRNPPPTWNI

[12] = target: T2, Tyrosine-protein phosphatase non-receptor type 22; format: functional; remark: listed apart in the source
[13] = target: T3, Tyrosine-protein phosphatase non-receptor type 7 (Homo sapiens, UniProt P35236); format: functional
T3 sequence (P35236 whole entry): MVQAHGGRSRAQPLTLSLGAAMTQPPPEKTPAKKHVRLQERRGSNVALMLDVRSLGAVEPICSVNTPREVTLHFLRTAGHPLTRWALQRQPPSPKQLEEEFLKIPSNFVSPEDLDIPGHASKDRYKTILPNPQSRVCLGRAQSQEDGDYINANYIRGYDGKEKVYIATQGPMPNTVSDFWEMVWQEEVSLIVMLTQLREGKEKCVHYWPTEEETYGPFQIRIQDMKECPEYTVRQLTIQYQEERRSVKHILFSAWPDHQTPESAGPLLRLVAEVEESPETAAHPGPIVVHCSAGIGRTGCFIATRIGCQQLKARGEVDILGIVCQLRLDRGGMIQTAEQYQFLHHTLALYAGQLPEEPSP

[14] = target: T4, DNA repair protein RAD52 homolog (Homo sapiens, UniProt P43351); format: functional, biochemical
T4 sequence (P43351 whole entry): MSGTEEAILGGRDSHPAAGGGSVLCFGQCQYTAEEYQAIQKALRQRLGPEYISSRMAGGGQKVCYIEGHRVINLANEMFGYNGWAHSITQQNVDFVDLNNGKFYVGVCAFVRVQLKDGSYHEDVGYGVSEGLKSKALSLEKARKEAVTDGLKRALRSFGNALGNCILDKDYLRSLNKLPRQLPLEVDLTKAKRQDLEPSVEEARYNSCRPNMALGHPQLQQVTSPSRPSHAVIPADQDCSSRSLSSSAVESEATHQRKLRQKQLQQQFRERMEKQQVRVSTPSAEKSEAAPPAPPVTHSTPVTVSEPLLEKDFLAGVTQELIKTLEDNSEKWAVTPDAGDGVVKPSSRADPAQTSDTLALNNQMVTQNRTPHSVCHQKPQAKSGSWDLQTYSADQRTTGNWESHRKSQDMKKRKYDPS

[15] = viability inhibitors of stage V gametocytes – luminescence, dose response (AID 1117278); format: functional, cell-based;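 note: gametocytes exposed to compound for 24 hours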
[16] = viability loss in human Jurkat cells – cell-based, luminescence, cytotoxicity control for P. falciparum gametocyte viability project, dose response (AID 1117277); format: functional;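 note: potency reflects loss of cellular ATP meaning fewer viable cells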
[17] = system: Escherichia coli; assay: microbe, parasite or virus in culture
[18] = system: Vero; assay: cells; format: functional, cell-based; conditions: Chlorocebus sabaeus
[19] = viability of PTEN-deleted HCT116 cells – cell-based, HCT116 PTEN knockout, dose response (AID 1047); format: functional;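 note: HCT116 colon tumor cells with PTEN knocked out; cells exposed to compound for 60 hours before readout; potency for loss of cell viability measured by luminescence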
[20] = system: Vero; assay: cells; format: functional; conditions: Chlorocebus sabaeus
[21] = viability of HCT116 lacking mutant beta-catenin – cell-based, human colon tumor, dose response (AID 1045); format: functional;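 note: HCT116 colon tumor cells with beta catenin knocked out; cells exposed to compound for 60 hours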
[22] = target: T5, Rac GTPase-activating protein 1 (Homo sapiens, UniProt Q9H0H5); assay: blockers of MgcRacGAP-driven Rac1 GTP hydrolysis – biochemical, ADP Hunter fluorescence, primary and confirmatory, confirmation (AID 624330); format: functional
T5 sequence (Q9H0H5 whole entry): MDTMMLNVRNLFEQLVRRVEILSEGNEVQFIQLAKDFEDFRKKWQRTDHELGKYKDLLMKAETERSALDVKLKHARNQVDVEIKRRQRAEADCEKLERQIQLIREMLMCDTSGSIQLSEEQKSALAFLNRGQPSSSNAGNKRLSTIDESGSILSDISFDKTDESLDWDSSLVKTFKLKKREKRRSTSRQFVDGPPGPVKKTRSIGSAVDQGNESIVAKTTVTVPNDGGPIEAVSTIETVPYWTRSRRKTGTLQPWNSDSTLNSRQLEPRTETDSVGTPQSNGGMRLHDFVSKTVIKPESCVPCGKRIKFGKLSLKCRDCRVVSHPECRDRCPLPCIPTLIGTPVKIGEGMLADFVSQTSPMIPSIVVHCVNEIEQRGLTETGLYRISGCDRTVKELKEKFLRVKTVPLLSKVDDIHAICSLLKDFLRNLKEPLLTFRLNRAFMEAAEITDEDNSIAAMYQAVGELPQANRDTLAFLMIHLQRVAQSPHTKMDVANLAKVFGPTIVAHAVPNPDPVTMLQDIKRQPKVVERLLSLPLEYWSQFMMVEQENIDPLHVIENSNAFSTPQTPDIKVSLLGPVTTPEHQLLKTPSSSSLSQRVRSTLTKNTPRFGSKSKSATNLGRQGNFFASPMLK

[23] = bead-based luminescence quenchers, dual-tagged ARNT – biochemical, AlphaScreen, cherry-pick, artefact control for ARNT-TACC3 interaction inhibitor project, dose response (AID 651705); format: functional;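 note: AlphaScreen bead proximity signal that flags compounds interfering with the detection technology; potency reflects signal decrease which marks the compound as an assay artifact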
[24] = target: Nonstructural protein 1 (Influenza A virus, UniProt Q194T2); format: functional, Influenza A virus (A/California/07/2009(H1N1))
[25] = target: T6, Kappa-type opioid receptor (Homo sapiens, UniProt P41145); assay: kappa opioid receptor activation by imaging – image-based, set 3, SAR follow-up (AID 488833); format: functional
[26] = target: Delta-type opioid receptor (Homo sapiens, UniProt P41143); assay: SAR Analysis of Agonists of the DOR Receptor using an Image-Based Assay - Set 3. [Related pubchem assays (depositor defined):AID1777, AID1786]; format: functional
[27] = target: T6, Kappa-type opioid receptor; assay: SAR analysis of small molecule agonists of the kappa opioid receptor via a luminescent beta-arrestin assay - Set 3. [Related pubchem assays (depositor defined):AID1777, AID1785, AID1786, AID1966, AID2133, AID2136, AID2284, AID2500]; format: functional
[28] = target: Mu-type opioid receptor (Homo sapiens, UniProt P35372); assay: SAR Analysis of Agonists of the MOR Receptor using an Image-Based Assay - Set 3. [Related pubchem assays (depositor defined):AID1777, AID1785, AID1786, AID1966, AID2133, AID2136, AID2284, AID2285, AID2352]; format: functional
[29] = system: Escherichia coli; assay: microbe, parasite or virus in culture; remark: listed apart in the source
[30] = target: Peroxisome proliferator-activated receptor gamma/Nuclear receptor coactivator 2 (Homo sapiens, UniProt P37231); assay: TR-FRET dose response biochemical High Throughput Screening assay for agonists of the steroid receptor coactivator 2 (SRC-2) recruitment by the peroxisome proliferator-activated receptor gamma (PPAR gamma): non-selective agonists. [Related pubchem assays: 1297, 1032 ]; format: functional
[31] = target: Peroxisome proliferator-activated receptor gamma/Nuclear receptor coactivator 1 (Homo sapiens, UniProt P37231); assay: TR-FRET dose response biochemical High Throughput Screening assay for agonists of the steroid receptor coactivator 1 (SRC-1) recruitment by the peroxisome proliferator-activated receptor gamma (PPAR gamma): non-selective agonists. [Related pubchem assays (depositor defined):AID1300, AID1808, AID504735, AID631]; format: protein assay
[32] = target: Peroxisome proliferator-activated receptor gamma/Nuclear receptor coactivator 3 (Homo sapiens, UniProt P37231); assay: TR-FRET dose response biochemical High Throughput Screening assay for agonists of the steroid receptor coactivator 3 (SRC-3) recruitment by the peroxisome proliferator-activated receptor gamma (PPAR gamma): non-selective agonists. [Related pubchem assays: 1301 (Confirmation screen.), 1048 (Primary screen.)]; format: functional

Chain of Bcl-2-related protein A1 (Q07440 whole entry): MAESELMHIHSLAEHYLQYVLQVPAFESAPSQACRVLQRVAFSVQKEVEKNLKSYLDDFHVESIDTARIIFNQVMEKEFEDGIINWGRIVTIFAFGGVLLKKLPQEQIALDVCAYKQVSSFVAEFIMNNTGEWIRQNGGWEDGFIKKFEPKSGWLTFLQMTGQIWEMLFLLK
Chain of Exodeoxyribonuclease V (P04993 whole entry): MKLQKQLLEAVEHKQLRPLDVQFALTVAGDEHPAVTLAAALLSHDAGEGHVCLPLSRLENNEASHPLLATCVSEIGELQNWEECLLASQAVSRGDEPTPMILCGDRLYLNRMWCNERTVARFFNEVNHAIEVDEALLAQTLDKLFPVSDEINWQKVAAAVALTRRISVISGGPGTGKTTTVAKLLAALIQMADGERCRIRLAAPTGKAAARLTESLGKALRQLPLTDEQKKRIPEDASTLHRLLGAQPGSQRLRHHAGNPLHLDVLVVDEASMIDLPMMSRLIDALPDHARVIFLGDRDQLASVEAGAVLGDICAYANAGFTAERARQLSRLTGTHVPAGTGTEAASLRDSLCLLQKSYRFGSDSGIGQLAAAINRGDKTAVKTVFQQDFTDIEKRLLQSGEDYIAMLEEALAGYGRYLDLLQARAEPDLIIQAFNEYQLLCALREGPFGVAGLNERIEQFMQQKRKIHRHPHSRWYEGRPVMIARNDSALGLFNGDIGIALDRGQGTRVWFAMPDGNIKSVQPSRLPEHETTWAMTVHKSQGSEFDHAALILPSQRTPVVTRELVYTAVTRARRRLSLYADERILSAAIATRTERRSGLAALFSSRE
Chain of Exodeoxyribonuclease V (P07648 whole entry): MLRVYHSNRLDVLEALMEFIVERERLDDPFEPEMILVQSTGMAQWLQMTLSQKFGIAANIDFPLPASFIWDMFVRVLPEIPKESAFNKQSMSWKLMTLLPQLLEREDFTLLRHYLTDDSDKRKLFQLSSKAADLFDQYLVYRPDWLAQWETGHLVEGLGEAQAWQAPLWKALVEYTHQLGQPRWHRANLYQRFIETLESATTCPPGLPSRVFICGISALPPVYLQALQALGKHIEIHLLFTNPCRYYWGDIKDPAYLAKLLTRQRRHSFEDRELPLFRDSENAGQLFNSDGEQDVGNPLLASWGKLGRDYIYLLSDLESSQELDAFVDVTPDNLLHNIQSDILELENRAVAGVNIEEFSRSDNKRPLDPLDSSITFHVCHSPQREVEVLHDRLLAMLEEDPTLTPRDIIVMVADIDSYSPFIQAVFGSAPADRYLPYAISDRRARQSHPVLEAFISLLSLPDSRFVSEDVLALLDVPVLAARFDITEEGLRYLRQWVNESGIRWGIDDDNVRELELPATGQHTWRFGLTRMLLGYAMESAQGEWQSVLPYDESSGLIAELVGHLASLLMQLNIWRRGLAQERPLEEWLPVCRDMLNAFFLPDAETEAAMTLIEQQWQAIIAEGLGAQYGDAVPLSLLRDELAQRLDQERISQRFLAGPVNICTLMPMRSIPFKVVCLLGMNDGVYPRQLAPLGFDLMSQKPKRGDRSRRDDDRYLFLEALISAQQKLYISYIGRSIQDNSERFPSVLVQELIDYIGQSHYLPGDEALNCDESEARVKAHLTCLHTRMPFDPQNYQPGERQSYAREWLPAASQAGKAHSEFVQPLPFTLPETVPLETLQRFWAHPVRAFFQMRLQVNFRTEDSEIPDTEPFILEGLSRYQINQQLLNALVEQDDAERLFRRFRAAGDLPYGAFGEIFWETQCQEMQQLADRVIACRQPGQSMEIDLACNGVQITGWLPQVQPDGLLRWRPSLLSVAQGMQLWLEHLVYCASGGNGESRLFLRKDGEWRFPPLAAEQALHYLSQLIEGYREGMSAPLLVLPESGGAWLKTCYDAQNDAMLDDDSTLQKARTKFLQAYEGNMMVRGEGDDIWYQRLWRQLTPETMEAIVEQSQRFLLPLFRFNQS
Chain of Exodeoxyribonuclease V (P08394 whole entry): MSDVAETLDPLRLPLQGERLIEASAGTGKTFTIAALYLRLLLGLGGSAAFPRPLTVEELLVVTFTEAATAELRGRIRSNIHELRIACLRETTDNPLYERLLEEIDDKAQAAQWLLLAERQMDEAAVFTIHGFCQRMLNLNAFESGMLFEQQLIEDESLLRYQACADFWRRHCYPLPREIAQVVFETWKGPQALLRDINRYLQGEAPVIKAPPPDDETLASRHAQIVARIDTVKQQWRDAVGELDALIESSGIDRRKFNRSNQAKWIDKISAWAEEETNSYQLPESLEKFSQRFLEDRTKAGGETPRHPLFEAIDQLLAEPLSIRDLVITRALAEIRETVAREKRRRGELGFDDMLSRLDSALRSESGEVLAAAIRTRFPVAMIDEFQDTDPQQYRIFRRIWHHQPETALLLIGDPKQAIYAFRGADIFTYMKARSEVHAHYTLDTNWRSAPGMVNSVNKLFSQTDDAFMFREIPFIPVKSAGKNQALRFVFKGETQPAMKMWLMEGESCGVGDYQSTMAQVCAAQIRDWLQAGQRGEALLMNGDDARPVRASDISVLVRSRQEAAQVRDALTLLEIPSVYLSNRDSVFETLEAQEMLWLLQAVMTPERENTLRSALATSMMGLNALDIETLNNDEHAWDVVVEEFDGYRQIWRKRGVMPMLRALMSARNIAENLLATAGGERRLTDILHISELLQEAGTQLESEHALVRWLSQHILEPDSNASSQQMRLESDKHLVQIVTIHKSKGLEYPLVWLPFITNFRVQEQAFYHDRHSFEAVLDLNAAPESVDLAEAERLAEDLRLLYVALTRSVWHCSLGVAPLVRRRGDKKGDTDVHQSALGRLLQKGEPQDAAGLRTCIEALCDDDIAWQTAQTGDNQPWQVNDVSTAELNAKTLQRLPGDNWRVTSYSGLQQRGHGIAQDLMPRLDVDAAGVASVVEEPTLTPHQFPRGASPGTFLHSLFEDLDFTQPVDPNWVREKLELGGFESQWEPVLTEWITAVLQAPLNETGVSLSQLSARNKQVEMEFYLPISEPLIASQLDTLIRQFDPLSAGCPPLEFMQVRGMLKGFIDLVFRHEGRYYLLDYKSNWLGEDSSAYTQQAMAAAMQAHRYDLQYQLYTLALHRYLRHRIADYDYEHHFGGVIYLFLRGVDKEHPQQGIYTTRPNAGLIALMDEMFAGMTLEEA
T6 sequence (P41145 whole entry): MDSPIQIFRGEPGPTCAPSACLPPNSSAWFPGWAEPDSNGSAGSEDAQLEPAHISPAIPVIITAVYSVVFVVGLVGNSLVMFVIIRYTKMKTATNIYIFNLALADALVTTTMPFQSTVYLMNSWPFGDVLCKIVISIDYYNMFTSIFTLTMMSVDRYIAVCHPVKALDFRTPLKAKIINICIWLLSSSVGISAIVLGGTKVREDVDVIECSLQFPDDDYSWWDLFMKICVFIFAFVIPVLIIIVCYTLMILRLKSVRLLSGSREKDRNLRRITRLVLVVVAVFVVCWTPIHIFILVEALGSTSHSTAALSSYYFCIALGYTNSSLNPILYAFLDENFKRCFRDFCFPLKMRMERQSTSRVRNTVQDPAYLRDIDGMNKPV
Chain of Nonstructural protein 1 (Q194T2 whole entry): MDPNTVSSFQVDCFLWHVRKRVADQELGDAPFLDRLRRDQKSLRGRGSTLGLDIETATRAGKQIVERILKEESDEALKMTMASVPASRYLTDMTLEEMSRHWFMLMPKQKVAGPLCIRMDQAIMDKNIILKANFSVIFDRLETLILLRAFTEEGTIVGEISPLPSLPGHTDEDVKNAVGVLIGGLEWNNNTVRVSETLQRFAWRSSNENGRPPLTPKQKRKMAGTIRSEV
Chain of Delta-type opioid receptor (P41143 whole entry): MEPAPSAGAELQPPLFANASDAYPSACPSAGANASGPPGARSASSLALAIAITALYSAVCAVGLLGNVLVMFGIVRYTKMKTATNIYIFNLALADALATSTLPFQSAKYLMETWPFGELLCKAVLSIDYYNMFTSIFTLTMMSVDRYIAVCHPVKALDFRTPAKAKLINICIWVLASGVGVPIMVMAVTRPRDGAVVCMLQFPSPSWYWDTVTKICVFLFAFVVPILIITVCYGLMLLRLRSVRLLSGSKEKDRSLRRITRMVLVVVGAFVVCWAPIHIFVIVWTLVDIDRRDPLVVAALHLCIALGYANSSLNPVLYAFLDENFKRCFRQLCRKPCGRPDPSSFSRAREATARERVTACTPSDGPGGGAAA
Chain of Fructose-bisphosphate aldolase (P9WQA3 whole entry): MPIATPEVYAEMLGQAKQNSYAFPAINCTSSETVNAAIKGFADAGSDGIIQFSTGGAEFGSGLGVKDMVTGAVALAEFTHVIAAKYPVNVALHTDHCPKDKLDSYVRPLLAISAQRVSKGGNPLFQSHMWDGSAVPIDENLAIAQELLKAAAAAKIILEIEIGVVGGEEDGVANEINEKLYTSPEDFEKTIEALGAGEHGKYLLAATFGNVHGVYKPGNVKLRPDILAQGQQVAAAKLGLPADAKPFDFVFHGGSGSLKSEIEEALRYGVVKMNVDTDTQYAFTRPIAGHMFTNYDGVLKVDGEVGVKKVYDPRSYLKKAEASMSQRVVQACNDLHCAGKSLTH
Chain of Mu-type opioid receptor (P35372 whole entry): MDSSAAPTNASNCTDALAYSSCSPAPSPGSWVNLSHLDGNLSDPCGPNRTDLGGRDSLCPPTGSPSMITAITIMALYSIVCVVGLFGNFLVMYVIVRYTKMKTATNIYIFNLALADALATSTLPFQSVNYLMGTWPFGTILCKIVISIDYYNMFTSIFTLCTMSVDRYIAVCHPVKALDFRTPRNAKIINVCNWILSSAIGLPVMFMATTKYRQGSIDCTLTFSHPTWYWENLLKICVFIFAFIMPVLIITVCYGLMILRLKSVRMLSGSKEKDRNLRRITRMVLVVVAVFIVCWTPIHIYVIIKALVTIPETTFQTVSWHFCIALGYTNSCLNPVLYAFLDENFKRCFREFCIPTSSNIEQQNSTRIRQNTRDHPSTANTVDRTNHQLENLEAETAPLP

O=C(OCC(=O)c1cccs1)c1ccc([N+](=O)[O-])o1
IC50 [1]: 92.6 µM (inactive)
IC50 [2]: > 119 µM (inactive)

Cc1ccc2nc(-c3ccc(-c4cccc(Cl)c4)cc3)c(NCc3ccccc3)n2c1
AC50 [3]: 4.96 µM (active)
AC50 [4]: 24 µM (active)
IC50 [5]: 0.848 µM (active)
AC50 [6]: 2.29 µM (active)

Cc1cc(C(=O)NNC(=S)NC(=O)/C=C/c2ccccc2Cl)[nH]n1
IC50 [7]: 5.24 µM (active)
IC50 [8]: 6.96 µM (active)
IC50 [9]: > 20 µM (inactive)
IC50 [10]: > 122 µM (inactive)

CCOC1(C)OCC(=O)[C@]2(CCC3C4CCC5=CC(=O)C=CC5(C)C4C(=O)CC32C)O1 (some centres not stated)
IC50 [11]: > 79.4 µM (inactive)
IC50 [12]: > 79.4 µM (inactive)
IC50 [13]: > 79.4 µM (inactive)

C[C@]12CC[C@H](O)C[C@@H]1CC[C@@H]1[C@@H]2CC[C@]2(C)[C@@H](OC(=O)[C@H](N)CCCCN)CC[C@@H]12
IC50 [7]: 11.8 µM (active)
IC50 [9]: > 20 µM (inactive)
AC50 [14]: 1.27 µM (active)

COc1ccc(C(C#N)(CCC#N)CCC#N)cc1OC
IC50 [15]: > 109 µM (inactive)
IC50 [11]: > 79.4 µM (inactive)
IC50 [12]: > 79.4 µM (inactive)
IC50 [13]: > 79.4 µM (inactive)
IC50 [16]: > 83.3 µM (inactive)

C[C@H](NS(=O)(=O)c1ccc(Cl)c(Cl)c1)C(=O)OCc1cc(=O)n2cc(Br)ccc2n1
AC50 [17]: 67.4 µM (active)

CCCCCOc1ccc(CSC(=N)N)cc1[N+](=O)[O-]
IC50 [18]: 21.2 µM (active)
IC50 [1]: 83.6 µM (inactive)
EC50 [19]: 25 µM (active)
CC50 [20]: > 25 µM (active)
EC50 [21]: 27 µM (active)
IC50 [10]: > 122 µM (inactive)
IC50 [2]: > 39.5 µM (inactive)

O=C(Cn1cnc([N+](=O)[O-])n1)N/N=C/c1ccc(O)cc1O
AC50 [3]: 19.3 µM (active)
IC50 [22]: 107 µM (active)
AC50 [4]: 20.8 µM (active)
AC50 [23]: 102 µM (active)
IC50 [24]: 10.9 µM (active)

Fc1ccc(CSc2nnc(-c3ccccn3)n2Cc2ccco2)c(C(F)(F)F)c1
EC50 [25]: 5.39 µM (active)
EC50 [26]: > 64 µM (inactive)
EC50 [27]: 8.27 µM (active)
EC50 [28]: > 32 µM (inactive)

O=C(O)CN1C(=O)CC(Cc2ccc(Cl)cc2)C1=O (configuration not stated)
AC50 [29]: 106 µM (active)

Cn1c(=O)cc(SCC(=O)N2CCCC2)c2ccc(Cl)cc21
EC50 [30]: > 79.4 µM (not active)
EC50 [31]: > 79.4 µM (inactive)
EC50 [32]: > 79.4 µM (not active)
